Measurements as given in PubChem BioAssay AID588488 (The Scripps Research Institute Molecular Screening Center, 2011).
Activity calls are given as the source filed them.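 How the source made its calls: active means inhibition of 50% or more in at least one of the four enzyme panels; inactive means below 50% inhibition in every panel.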

Tests used:
Assay in all cases: PAD1-4 inhibition by cherry-picked hits, late-stage follow-up, selectivity assay for PAD4 inhibitor project, biochemical, colorimetric, BAEE substrate, HTS hits (AID 588488)
[1] = molecular target: Protein-arginine deiminase type-1 (Homo sapiens) (UniProt Q9ULC6); conditions: Recombinant PAD1-4, BAEE citrulline colorimetric absorbance; PAD1; at 10 µM; stronger effect = higher value
Sequence of Protein-arginine deiminase type-1 (Homo sapiens) (Q9ULC6 whole entry, looked up): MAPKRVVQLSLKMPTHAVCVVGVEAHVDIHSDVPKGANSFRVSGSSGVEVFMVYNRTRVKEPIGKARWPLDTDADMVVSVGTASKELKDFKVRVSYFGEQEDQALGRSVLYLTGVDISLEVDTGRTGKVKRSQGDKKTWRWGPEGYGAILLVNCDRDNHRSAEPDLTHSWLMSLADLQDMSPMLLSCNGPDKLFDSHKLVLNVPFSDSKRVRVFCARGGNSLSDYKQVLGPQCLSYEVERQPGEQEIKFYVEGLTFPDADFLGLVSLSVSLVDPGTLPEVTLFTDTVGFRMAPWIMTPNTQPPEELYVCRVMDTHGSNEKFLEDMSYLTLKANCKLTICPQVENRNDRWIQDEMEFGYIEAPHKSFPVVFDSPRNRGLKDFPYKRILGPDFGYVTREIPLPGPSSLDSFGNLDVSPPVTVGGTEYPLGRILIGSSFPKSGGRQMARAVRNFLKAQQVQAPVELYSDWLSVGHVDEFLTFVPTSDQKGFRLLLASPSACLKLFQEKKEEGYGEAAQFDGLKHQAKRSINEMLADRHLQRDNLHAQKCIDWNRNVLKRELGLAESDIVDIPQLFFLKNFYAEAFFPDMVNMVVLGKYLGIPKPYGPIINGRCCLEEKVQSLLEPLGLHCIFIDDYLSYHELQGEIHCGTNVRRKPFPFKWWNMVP

[2] = molecular target: Protein-arginine deiminase type-2 (Homo sapiens) (UniProt Q9Y2J8); conditions: Recombinant PAD1-4, BAEE citrulline colorimetric absorbance; PAD2; at 10 µM; stronger effect = higher value
Sequence of Protein-arginine deiminase type-2 (Homo sapiens) (Q9Y2J8 whole entry, looked up): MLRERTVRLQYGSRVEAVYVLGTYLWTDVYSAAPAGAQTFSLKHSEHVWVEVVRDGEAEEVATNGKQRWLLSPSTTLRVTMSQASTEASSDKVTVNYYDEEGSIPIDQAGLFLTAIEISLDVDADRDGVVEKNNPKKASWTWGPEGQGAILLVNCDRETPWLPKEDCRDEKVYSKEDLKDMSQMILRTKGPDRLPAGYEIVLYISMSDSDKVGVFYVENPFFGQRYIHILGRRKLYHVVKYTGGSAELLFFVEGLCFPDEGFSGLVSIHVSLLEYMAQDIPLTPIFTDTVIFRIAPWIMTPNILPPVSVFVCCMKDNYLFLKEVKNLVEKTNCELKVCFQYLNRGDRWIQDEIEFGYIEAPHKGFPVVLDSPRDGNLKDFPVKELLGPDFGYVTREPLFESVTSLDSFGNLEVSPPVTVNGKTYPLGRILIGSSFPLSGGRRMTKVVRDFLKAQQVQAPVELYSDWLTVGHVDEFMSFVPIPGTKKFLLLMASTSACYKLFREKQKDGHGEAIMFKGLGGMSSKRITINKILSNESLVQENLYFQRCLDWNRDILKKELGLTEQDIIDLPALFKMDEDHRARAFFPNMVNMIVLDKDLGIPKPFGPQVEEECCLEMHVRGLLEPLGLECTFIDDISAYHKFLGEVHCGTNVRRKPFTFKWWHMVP

[3] = molecular target: Protein-arginine deiminase type-3 (Homo sapiens) (UniProt Q9ULW8); conditions: Recombinant PAD1-4, BAEE citrulline colorimetric absorbance; PAD3; at 10 µM; stronger effect = higher value
Sequence of Protein-arginine deiminase type-3 (Homo sapiens) (Q9ULW8 whole entry, looked up): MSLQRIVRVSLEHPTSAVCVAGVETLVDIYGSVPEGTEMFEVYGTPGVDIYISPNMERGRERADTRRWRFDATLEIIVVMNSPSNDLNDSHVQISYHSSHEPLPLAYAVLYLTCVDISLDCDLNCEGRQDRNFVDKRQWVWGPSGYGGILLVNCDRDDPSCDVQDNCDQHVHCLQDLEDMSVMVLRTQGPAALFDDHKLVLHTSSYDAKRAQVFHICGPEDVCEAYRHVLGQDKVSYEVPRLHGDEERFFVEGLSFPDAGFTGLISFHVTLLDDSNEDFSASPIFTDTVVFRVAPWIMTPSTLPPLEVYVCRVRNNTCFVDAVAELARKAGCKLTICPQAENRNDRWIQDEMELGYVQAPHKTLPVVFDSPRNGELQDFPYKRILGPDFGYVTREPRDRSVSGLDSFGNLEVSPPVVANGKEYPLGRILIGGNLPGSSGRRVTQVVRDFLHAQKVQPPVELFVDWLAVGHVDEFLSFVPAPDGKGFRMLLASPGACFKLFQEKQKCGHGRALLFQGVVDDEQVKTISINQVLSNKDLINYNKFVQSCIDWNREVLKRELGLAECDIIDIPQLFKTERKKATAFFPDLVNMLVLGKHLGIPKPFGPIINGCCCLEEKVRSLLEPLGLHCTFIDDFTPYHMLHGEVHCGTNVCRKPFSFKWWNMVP

[4] = molecular target: Protein-arginine deiminase type-4 (Homo sapiens) (UniProt Q9UM07); conditions: Recombinant PAD1-4, BAEE citrulline colorimetric absorbance; PAD4; at 10 µM; stronger effect = higher value
Sequence of Protein-arginine deiminase type-4 (Homo sapiens) (Q9UM07 whole entry, looked up): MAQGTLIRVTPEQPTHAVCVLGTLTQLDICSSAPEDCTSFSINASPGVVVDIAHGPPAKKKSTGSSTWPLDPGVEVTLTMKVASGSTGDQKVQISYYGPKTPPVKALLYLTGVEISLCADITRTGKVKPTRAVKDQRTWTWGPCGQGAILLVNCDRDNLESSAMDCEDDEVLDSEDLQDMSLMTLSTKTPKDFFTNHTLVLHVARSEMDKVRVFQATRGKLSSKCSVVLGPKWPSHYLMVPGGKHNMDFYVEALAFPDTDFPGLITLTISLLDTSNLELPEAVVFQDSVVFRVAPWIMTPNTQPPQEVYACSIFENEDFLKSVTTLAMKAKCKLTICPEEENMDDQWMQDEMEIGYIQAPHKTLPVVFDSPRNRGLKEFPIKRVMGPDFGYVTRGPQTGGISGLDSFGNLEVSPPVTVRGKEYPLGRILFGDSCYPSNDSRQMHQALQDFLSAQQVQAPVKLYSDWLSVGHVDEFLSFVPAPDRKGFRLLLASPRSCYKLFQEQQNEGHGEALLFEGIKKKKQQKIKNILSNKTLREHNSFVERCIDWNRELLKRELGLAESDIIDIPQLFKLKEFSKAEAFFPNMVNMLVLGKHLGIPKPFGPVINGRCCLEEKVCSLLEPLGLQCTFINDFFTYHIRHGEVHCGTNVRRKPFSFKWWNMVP

Measured: inhibition

COc1cccc(NC(=O)CN(C)C(=O)C23CC4CC(CC(Cl)(C4)C2)C3)c1
inactive: [1] 6% | [2] 20% | [3] -3% | [4] 26%

Cc1nn(-c2cccc(Cl)c2)c2c1C(c1cccnc1)C(C#N)=C(N)O2 (configuration not stated)
inactive: [1] -3% | [2] 7% | [3] -4% | [4] 1%

Cc1ccc(CNC(=O)c2ccc(C)c(S(=O)(=O)N3CCCCC3)c2)cc1
inactive: [1] 21% | [2] 15% | [3] -2% | [4] 13%

Cc1cc2ncn(-c3ncccc3[N+](=O)[O-])c2cc1C
inactive: [1] 25% | [2] -8% | [3] 8% | [4] 24%

CC(=O)N(Cc1cc(=O)[nH]c2ccccc12)c1cccc(C)c1
inactive: [1] 4% | [2] 21% | [3] -3% | [4] 16%

CN(C)CCCNc1cn[nH]c(=O)c1Cl
inactive: [1] 27% | [2] 20% | [3] 2% | [4] 42%

S=C(NCc1ccco1)Nc1cccc(Cl)c1
inactive: [1] 17% | [2] 13% | [3] -2% | [4] 11%

Cc1nonc1OC(C)CNc1ccc([N+](=O)[O-])cc1 (configuration not stated)
inactive: [1] 8% | [2] 27% | [3] 7% | [4] 12%

Cc1oc2c(C)c(O)ccc2c(=O)c1-c1ccc2ccccc2n1
inactive: [1] 17% | [2] 9% | [3] -19% | [4] 18%

CC(NC(=O)Nc1ccc(O)cc1)(C(F)(F)F)C(F)(F)F
inactive: [1] 8% | [2] -10% | [3] -11% | [4] 14%

Cc1c(NC(=O)CSc2nccn2C)c(=O)n(-c2ccccc2)n1C
inactive: [1] 22% | [2] 3% | [3] -18% | [4] 0%

COc1ccc(CCNC(=O)COC(=O)c2ccc(C)s2)cc1
inactive: [1] 5% | [2] 9% | [3] -24% | [4] 3%

N#CCCN(C(=O)Cn1nc(C(=O)O)c2ccccc2c1=O)c1ccccc1
inactive: [1] 13% | [2] 10% | [3] -12% | [4] 17%

CCN(CC)c1cccc(OC2=NS(=O)(=O)c3ccccc32)c1
inactive: [1] 3% | [2] 18% | [3] 6% | [4] 16%

Cc1cc(N(C)NC(=S)Nc2ccccc2)nc(C)n1
inactive: [1] 5% | [2] 17% | [3] -6% | [4] 1%

COC(=O)c1cc(C)nc(Sc2ccccc2N)n1
inactive: [1] 10% | [2] 15% | [3] -14% | [4] 6%

Cc1nn(-c2ccccc2)c(C)c1NC(=O)COc1ccc(Cl)cc1Cl
inactive: [1] 2% | [2] 17% | [3] -3% | [4] 16%

CN(C)CCN(Cc1ccccc1)c1ccccn1
inactive: [1] -7% | [2] 22% | [3] -9% | [4] 6%

Cc1ccc(C2CC(=O)Oc3cc(O)ccc32)cc1 (configuration not stated)
inactive: [1] 7% | [2] 17% | [3] -3% | [4] 12%

CCOc1nc(Nc2ccc(OC)cc2OC)nc(OCC)n1
inactive: [1] 27% | [2] 12% | [3] -2% | [4] 9%

Cn1c(=O)c2c(ncn2CC(=O)Nc2nc(-c3ccccc3Cl)cs2)n(C)c1=O
inactive: [1] 8% | [2] 45% | [3] 3% | [4] 25%

COc1ccc(C2C(C#N)=C(N)N(N(C)C)C3=C2C(=O)CCC3)cc1 (configuration not stated)
inactive: [1] 9% | [2] 7% | [3] -1% | [4] 21%

N#CCCn1[nH]c(-c2ccccc2)cc1=O
inactive: [1] 3% | [2] 39% | [3] -12% | [4] 28%

CCN(CC)S(=O)(=O)c1ccc(N=NC2=C(O)CCCC2=O)cc1
inactive: [1] 0% | [2] 15% | [3] 17% | [4] 10%

O=c1cc(-c2ccc(Cl)cc2)[nH][nH]1
inactive: [1] 1% | [2] -6% | [3] -4% | [4] 4%

Cc1c(C(=O)N2CCCCC2)c(S(=O)(=O)N2CCN(c3ccc(Cl)cc3)CC2)c(C)n1C
inactive: [1] 6% | [2] 4% | [3] -6% | [4] 15%

COc1cccc(NC(=O)C2c3cc(OC)c(OC)cc3C(=O)N(C)C2c2cccnc2)c1 (configuration not stated)
inactive: [1] 5% | [2] 26% | [3] -3% | [4] 8%

Cc1cc(-c2nnc(SCC(=O)Nc3ccc(F)c(F)c3)n2N)n[nH]1
inactive: [1] 1% | [2] 6% | [3] -7% | [4] -1%

O=C(NCC1CCCO1)c1cc2c([nH]c3ccccc32)c(-c2ccc(F)cc2)n1 (configuration not stated)
inactive: [1] 5% | [2] 20% | [3] -2% | [4] -3%

COc1ccc(-c2cc(=O)[nH][nH]2)cc1
inactive: [1] 14% | [2] 26% | [3] 3% | [4] 20%

COc1cccc(/C=C2/CN(C)CC3=C2OC(N)=C(C#N)C3c2cccc(OC)c2)c1 (configuration not stated)
inactive: [1] 18% | [2] 20% | [3] -20% | [4] 20%

COc1cccc2cc(C(=O)NC3CC(C)(C)NC(C)(C)C3)c(=O)oc12
inactive: [1] -2% | [2] 3% | [3] -2% | [4] 17%

COc1ccc(S(=O)(=O)Nc2ccccc2C)cc1
inactive: [1] 31% | [2] 14% | [3] -3% | [4] 18%
